Assay results as given in ChEMBL document CHEMBL1201862, “PubChem BioAssay data set” (2004).
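These data come from cells grown in 96-well plates and exposed to compound for 48 hours at five concentrations. Abbreviation: GI50, concentration required for 50% inhibition of growth.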 The source made the active and inactive calls. Cut-off read from the data, not from the text of the source: active = GI50 up to about 1.1 µM and inactive = higher.

Experiments:
Assay in all cases: NCI anticancer screen, dose series, 48 h
LOX IMVI = test system: LOX IMVI
HCT-116 = test system: HCT-116
DU-145 = test system: DU-145
M14 = test system: M14
RXF 393 = test system: RXF 393
UO-31 = test system: UO-31
MDA-MB-435 = test system: MDA-MB-435
SNB-75 = test system: SNB-75
A498 = test system: A498
ACHN = test system: ACHN
TK-10 = test system: TK-10
OVCAR-5 = test system: OVCAR-5
NCI-H226 = test system: NCI-H226
HCT-15 = test system: HCT-15
BT-549 = test system: BT-549
786-0 = test system: 786-0
SK-MEL-2 = test system: SK-MEL-2
SW-620 = test system: SW-620
RPMI-8226 = test system: RPMI-8226
UACC-257 = test system: UACC-257

| Compound | GI50 (LOX IMVI) | GI50 (HCT-116) | GI50 (DU-145) | GI50 (M14) | GI50 (RXF 393) | GI50 (UO-31) | GI50 (MDA-MB-435) | GI50 (SNB-75) | GI50 (A498) | GI50 (ACHN) | GI50 (TK-10) | GI50 (OVCAR-5) | GI50 (NCI-H226) | GI50 (HCT-15) | GI50 (BT-549) | GI50 (786-0) | GI50 (SK-MEL-2) | GI50 (SW-620) | GI50 (RPMI-8226) | GI50 (UACC-257) |
| --- | --- | --- | --- | --- | --- | --- | --- | --- | --- | --- | --- | --- | --- | --- | --- | --- | --- | --- | --- | --- |
| COc1ccc(OC)c2c(C)ccnc12 | 5.28 µM (inactive) | 6.31 µM (inactive) | 24.1 µM (inactive) | 10.6 µM (inactive) | 16.1 µM (inactive) | 6.78 µM (inactive) | 25.7 µM (inactive) | 33.1 µM (inactive) | 56.8 µM (inactive) | 18.3 µM (inactive) | 81.7 µM (inactive) | 46.1 µM (inactive) | 25.5 µM (inactive) | 4.25 µM | 27.4 µM (inactive) | 22.3 µM (inactive) | 22.8 µM (inactive) | 10.5 µM (inactive) | 32.9 µM (inactive) | 33.7 µM (inactive) |
| O=[N+]([O-])c1cc([As](Br)c2ccc(O)c([N+](=O)[O-])c2)ccc1O | 1.48 µM (inactive) | 2 µM (inactive) | 2 µM (inactive) | 2.03 µM (inactive) | 1.56 µM (inactive) | 1.61 µM (inactive) | 1.78 µM (inactive) | 1.93 µM (inactive) | 1.95 µM (inactive) | 1.86 µM (inactive) | 1.58 µM (inactive) | 2.05 µM (inactive) | 1.5 µM (inactive) | 1.99 µM | 1.88 µM (inactive) | 1.44 µM (inactive) | 0.746 µM (active) | 0.733 µM (active) | 0.208 µM (active) | 1.69 µM (inactive) |
| CC(=O)OCC1OC(n2cnc3nc(Br)[nH]c(=O)c32)C(OC(C)=O)C1OC(C)=O (stereo not given) | > 100 µM (inactive) | > 100 µM (inactive) | > 100 µM (inactive) | > 100 µM (inactive) | > 100 µM (inactive) | > 100 µM (inactive) | > 100 µM (inactive) | 70.3 µM (inactive) | > 100 µM (inactive) | > 100 µM (inactive) | > 100 µM (inactive) | > 100 µM (inactive) | > 100 µM (inactive) | > 100 µM | > 100 µM (inactive) | > 100 µM (inactive) | > 100 µM (inactive) | > 100 µM (inactive) | > 100 µM (inactive) | > 100 µM (inactive) |
| CNC(=O)CCCN(C)C(=O)CCCCC(=O)N(C)C | > 57.5 µM (inactive) | > 57.5 µM (inactive) | > 58.5 µM (inactive) | > 100 µM (inactive) | > 100 µM (inactive) | > 61 µM (inactive) | > 56 µM (inactive) | > 53.8 µM (inactive) | 34.4 µM (inactive) | > 61.1 µM (inactive) | > 56.8 µM (inactive) | > 100 µM (inactive) | > 67.8 µM (inactive) | > 60.4 µM | > 62.8 µM (inactive) | > 55.3 µM (inactive) | > 50.9 µM (inactive) | > 59.6 µM (inactive) | > 57.1 µM (inactive) | > 59.3 µM (inactive) |
| CCOC(=O)Cn1c(=O)c2cc(-c3ccccc3)cc3c(Cl)nc4c(OC)c(OC)cc1c4c32 | 11.6 µM (inactive) | 13.9 µM (inactive) | 21.4 µM (inactive) | 15.6 µM (inactive) | 14.8 µM (inactive) | 2.07 µM (inactive) | 17.4 µM (inactive) | 15.3 µM (inactive) | 17 µM (inactive) | 19.9 µM (inactive) | 31.7 µM (inactive) | > 100 µM (inactive) | > 39.6 µM (inactive) | 15 µM | 18.5 µM (inactive) | 14.8 µM (inactive) | 15 µM (inactive) | 17.7 µM (inactive) | 4.91 µM (inactive) | 18.6 µM (inactive) |
| CCOC(=O)C(=Cc1ccc(Oc2ccccc2)cc1)C(=O)OCC | 1.47 µM (inactive) | 2.31 µM (inactive) | 11.6 µM (inactive) | 3.82 µM (inactive) | 1.89 µM (inactive) | 4.35 µM (inactive) | 2.58 µM (inactive) | 2.66 µM (inactive) | 15.3 µM (inactive) | 6.3 µM (inactive) | 7.74 µM (inactive) | 4.44 µM (inactive) | 3.17 µM (inactive) | 2.44 µM | 1.84 µM (inactive) | 1.85 µM (inactive) | 1.85 µM (inactive) | 2.22 µM (inactive) | 2.79 µM (inactive) | 2.42 µM (inactive) |
| C=C1CC[C@@H](CCC2CCC3(OC2)O[C@]2(O)CC[C@@]3(C)OC2(C)C)C(C)(C)[C@H]1C/C=C1\CCOC1=O (stereo not given in full) | 0.131 µM (active) | 0.354 µM (active) | 12.5 µM (inactive) | 17.7 µM (inactive) | 14.9 µM (inactive) | 30.3 µM (inactive) | 14.3 µM (inactive) | 19.6 µM (inactive) | 13.3 µM (inactive) | 10.7 µM (inactive) | 39.5 µM (inactive) | > 56.1 µM (inactive) | 3.91 µM (inactive) | 11.3 µM | 11.7 µM (inactive) | 11.8 µM (inactive) | 17.5 µM (inactive) | 33.3 µM (inactive) | 1.9 µM (inactive) | 0.507 µM (active) |
| CC(=O)O[C@H]1C[C@H]2C(=S)Nc3ccccc3C(=S)N2C1 | > 100 µM (inactive) | > 100 µM (inactive) | > 100 µM (inactive) | > 100 µM (inactive) | > 100 µM (inactive) | > 100 µM (inactive) | > 100 µM (inactive) | 88.3 µM (inactive) | > 100 µM (inactive) | > 100 µM (inactive) | > 100 µM (inactive) | > 100 µM (inactive) | > 100 µM (inactive) | > 100 µM | > 100 µM (inactive) | > 100 µM (inactive) | > 100 µM (inactive) | > 100 µM (inactive) | > 100 µM (inactive) | > 100 µM (inactive) |
| CC(=O)OCC1OC(Sc2nc(-c3ccccc3)c(C#N)c(=O)n2C2OC(COC(C)=O)C(OC(C)=O)C(OC(C)=O)C2OC(C)=O)C(OC(C)=O)C(OC(C)=O)C1OC(C)=O (stereo not given) | > 100 µM (inactive) | > 100 µM (inactive) | > 100 µM (inactive) | > 100 µM (inactive) | > 100 µM (inactive) | > 100 µM (inactive) | > 100 µM (inactive) | > 100 µM (inactive) | > 100 µM (inactive) | > 100 µM (inactive) | > 100 µM (inactive) | > 100 µM (inactive) | > 100 µM (inactive) | > 100 µM | > 100 µM (inactive) | > 100 µM (inactive) | > 100 µM (inactive) | > 100 µM (inactive) | > 100 µM (inactive) | > 100 µM (inactive) |
| Cc1cc(-c2nc3cc(F)ccc3s2)ccc1NC(=O)[C@@H](N)CCCCN | 1.82 µM (inactive) | 2 µM (inactive) | 13.9 µM (inactive) | 2.14 µM (inactive) | 7.26 µM (inactive) | 3.29 µM (inactive) | 1.79 µM (inactive) | 1.82 µM (inactive) | 10.2 µM (inactive) | 6.04 µM (inactive) | < 0.0132 µM (active) | 0.119 µM (active) | 0.134 µM (active) | 4.33 µM | 12.9 µM (inactive) | 2.69 µM (inactive) | 2.89 µM (inactive) | 2.65 µM (inactive) | 2.09 µM (inactive) | 5.71 µM (inactive) |
| O=C1CCCC(=O)N1n1c(Cc2ccccc2)n[nH]c1=O | > 100 µM (inactive) | > 100 µM (inactive) | > 100 µM (inactive) | > 100 µM (inactive) | > 100 µM (inactive) | > 100 µM (inactive) | > 100 µM (inactive) | > 100 µM (inactive) | > 100 µM (inactive) | > 100 µM (inactive) | > 100 µM (inactive) | > 100 µM (inactive) | > 100 µM (inactive) | > 100 µM | > 100 µM (inactive) | > 100 µM (inactive) | > 100 µM (inactive) | > 100 µM (inactive) | > 100 µM (inactive) | > 100 µM (inactive) |
| Cn1c(-c2ccco2)ccc1-c1ccc(C=O)o1 | 34.8 µM (inactive) | 24.2 µM (inactive) | 52.4 µM (inactive) | 35 µM (inactive) | > 100 µM (inactive) | 46.7 µM (inactive) | 68.1 µM (inactive) | > 100 µM (inactive) | 92.3 µM (inactive) | 49.7 µM (inactive) | > 100 µM (inactive) | > 100 µM (inactive) | > 100 µM (inactive) | 72.4 µM | 95.7 µM (inactive) | > 100 µM (inactive) | > 100 µM (inactive) | 33.4 µM (inactive) | 29 µM (inactive) | > 100 µM (inactive) |
| O=C1CNCCCN2CCN(CCCNCC(=O)Nc3ccc(cc3)S(=O)(=O)c3ccc(cc3)NC(=O)CNCCCN3CCN(CCCNCC(=O)Nc4ccc(cc4)S(=O)(=O)c4ccc(cc4)N1)CC3)CC2 | 21 µM (inactive) | 21.5 µM (inactive) | 41.4 µM (inactive) | 46 µM (inactive) | 28.6 µM (inactive) | 61 µM (inactive) | 20.9 µM (inactive) | 37.2 µM (inactive) | 20.7 µM (inactive) | 25.6 µM (inactive) | 20.8 µM (inactive) | 31.4 µM (inactive) | > 47.1 µM (inactive) | 21 µM | 30 µM (inactive) | 16.3 µM (inactive) | 35.1 µM (inactive) | 31.4 µM (inactive) | 29.2 µM (inactive) | 17 µM (inactive) |
| C/C(Cl)=N/OC(=O)Nc1ccc(F)c([N+](=O)[O-])c1 | 6.68 µM (inactive) | 3.89 µM (inactive) | 17.3 µM (inactive) | 19.2 µM (inactive) | 12.1 µM (inactive) | 8.05 µM (inactive) | 14.5 µM (inactive) | 1.71 µM (inactive) | 19.5 µM (inactive) | 3.02 µM (inactive) | 6.1 µM (inactive) | 24.2 µM (inactive) | 26.4 µM (inactive) | 5.94 µM | 14.1 µM (inactive) | 4 µM (inactive) | 17.6 µM (inactive) | 3.71 µM (inactive) | 2.65 µM (inactive) | 20.7 µM (inactive) |
